Measured values as given in US20070093520A1, “Method of treatment of diarrhea-predominant irritable bowel syndrome in a subject” (priority 2005, published 2007).

System: diarrhea-predominant IBS subjects
Experiment: 3007 Study: open-label 52-week safety study, adverse events and withdrawals
Settings: Placebo/Cilansetron 2 mg

## Cc1nccn1C[C@H]1CCc2c(c3cccc4c3n2CCC4)C1=O [cilansetron, (R)-(−)-4,5,6,8,9,10-hexahydro-10-[(2-methyl-1H-imidazol-1-yl)methyl]-11H-pyrido-[3,2,1-jk]-carbazol-11-one]
  TEAE: Eructation: 0 n (%)
  TEAE: Eye Injuries NEC: 0 n (%)
  TEAE: Faecal Abnormality NOS: 1 (<1%) n (%)
  TEAE: Faecal Impaction: 1 (<1%) n (%)
  TEAE: Faecal Incontinence: 3 (1%) n (%)
  TEAE: Faecal Occult Blood Positive: 8 (3%) n (%)
  TEAE: Faeces Abnormal: 7 (3%) n (%)
  TEAE: Faeces Hard: 5 (2%) n (%)
  TEAE: Fibromyalgia: 0 n (%)
  TEAE: Flatulence: 10 (4%) n (%)
  TEAE: Flatulence, Bloating and Distension: 13 (5%) n (%)
  TEAE: Food Poisoning NOS: 2 (<1%) n (%)
  TEAE: Foot Fracture: 1 (<1%) n (%)
  TEAE: Fractures and Dislocations NEC: 0 n (%)
  TEAE: Frequent Bowel Movements: 0 n (%)
  TEAE: Fungal Infection NOS: 1 (<1%) n (%)
  TEAE: Fungal Infections NEC: 4 (1%) n (%)
  TEAE: Gamma-Glutamyltransferase Increased: 3 (1%) n (%)
  TEAE: Gastric Irritation: 0 n (%)
  TEAE: Gastritis (Excl Infective): 0 n (%)
  TEAE: Gastritis NOS: 0 n (%)
  TEAE: Gastroenteritis NOS: 5 (2%) n (%)
  TEAE: Gastroenteritis Viral NOS: 6 (2%) n (%)
  TEAE: Gastrointestinal Atonic and Hypomotility Disorders NEC: 63 (23%) n (%)
  TEAE: Gastrointestinal Disorders: 134 (48%) n (%)
  TEAE: Gastrointestinal Disorders NEC: 2 (<1%) n (%)
  TEAE: Gastrointestinal Dyskinetic Disorders: 2 (<1%) n (%)
  TEAE: Gastrointestinal Histopathology Procedures: 12 (4%) n (%)
  TEAE: Gastrointestinal Infections - Pathogen Class Unspecified: 5 (2%) n (%)
  TEAE: Gastrointestinal Inflammatory Disorders NEC: 1 (<1%) n (%)
  TEAE: Gastrointestinal Motility Disorder NOS: 1 (<1%) n (%)
  TEAE: Gastrointestinal Mucosal Dystrophies and Secretion Disorders: 0 n (%)
  TEAE: Gastrointestinal Signs and Symptoms NEC: 2 (<1%) n (%)
  TEAE: Gastrointestinal Spastic and Hypermotility Disorders: 0 n (%)
  TEAE: Gastrointestinal and Abdominal Pains (Excl Oral and Throat): 33 (12%) n (%)
  TEAE: Gingival Abscess: 0 n (%)
  TEAE: Gingival Atrophy: 0 n (%)
  TEAE: Gingival Disorders NEC: 2 (<1%) n (%)
  TEAE: Gingival Pain: 0 n (%)
  TEAE: Gingival Pains: 0 n (%)
  TEAE: Gingivitis: 2 (<1%) n (%)
  TEAE: Gingivitis Infection NOS: 0 n (%)
  TEAE: Glucose Urine Present: 0 n (%)
  TEAE: Groin Pain: 0 n (%)
  TEAE: Haematocrit Decreased: 0 n (%)
  TEAE: Haemoglobin Decreased: 0 n (%)
  TEAE: Haemorrhoidal Haemorrhage: 2 (<1%) n (%)
  TEAE: Haemorrhoids: 7 (3%) n (%)
  TEAE: Haemorrhoids Aggravated: 1 (<1%) n (%)
  TEAE: Haemorrhoids and Gastrointestinal Varices (Excl Oesophageal): 9 (3%) n (%)
  TEAE: Halitosis: 0 n (%)
  TEAE: Headache NOS: 12 (4%) n (%)
  TEAE: Headache NOS Aggravated: 2 (<1%) n (%)
  TEAE: Headaches NEC: 14 (5%) n (%)
  TEAE: Heart Rate Increased: 1 (<1%) n (%)
  TEAE: Heart Rate and Pulse Investigations: 1 (<1%) n (%)
  TEAE: Heat Exhaustion: 0 n (%)
  TEAE: Heat Injuries (Excl Thermal Burns): 0 n (%)
  TEAE: Helicobacter Pylori Antibody Positive: 0 n (%)
  TEAE: Herpes Simplex: 1 (<1%) n (%)
  TEAE: Herpes Simplex Aggravated: 0 n (%)
  TEAE: Herpes Viral Infections: 2 (<1%) n (%)
  TEAE: Herpes Zoster: 1 (<1%) n (%)
  TEAE: Hiatus Hernia: 0 n (%)
  TEAE: Hyperreflexia: 0 n (%)
  TEAE: Hypoaesthesia: 1 (<1%) n (%)
  TEAE: Infected Varicose Vein: 0 n (%)
  TEAE: Infections NEC: 1 (<1%) n (%)
  TEAE: Infections and Infestations: 67 (24%) n (%)
  TEAE: Influenza: 7 (3%) n (%)
  TEAE: Influenza Viral Infections: 7 (3%) n (%)
  TEAE: Inguinal Hernia NOS: 1 (<1%) n (%)
  TEAE: Inguinal Hernias: 1 (<1%) n (%)
  TEAE: Injury, Poisoning and Procedural Complications: 21 (8%) n (%)
  TEAE: Intervertebral Disc Degeneration NOS: 0 n (%)
  TEAE: Intervertebral Disc Disorder NOS: 0 n (%)
  TEAE: Intervertebral Disc Disorders NEC: 0 n (%)
  TEAE: Intervertebral Disc Herniation: 0 n (%)
  TEAE: Intestinal Haemorrhages: 4 (1%) n (%)
  TEAE: Intraocular Pressure Increased: 1 (<1%) n (%)
  TEAE: Investigations: 49 (18%) n (%)
  TEAE: Irritable Bowel Syndrome: 0 n (%)
  TEAE: Irritable Bowel Syndrome Aggravated: 0 n (%)
  TEAE: Joint Related Disorders NEC: 1 (<1%) n (%)
  TEAE: Joint Related Signs and Symptoms: 3 (1%) n (%)
  TEAE: Joint Sprain: 3 (1%) n (%)
  TEAE: Joint Swelling: 0 n (%)
  TEAE: Kidney Infection NOS: 1 (<1%) n (%)
  TEAE: Laceration: 3 (1%) n (%)
  TEAE: Ligament Sprain: 1 (<1%) n (%)
  TEAE: Limb Discomfort NOS: 1 (<1%) n (%)
  TEAE: Limb Injuries NEC (Incl Traumatic Amputation): 3 (1%) n (%)
  TEAE: Limb Injury NOS: 0 n (%)
  TEAE: Lip and Palate Disorders NEC: 1 (<1%) n (%)
  TEAE: Liver Function Analyses: 11 (4%) n (%)
  TEAE: Liver Function Tests NOS Abnormal: 2 (<1%) n (%)
  TEAE: Localised Infection: 1 (<1%) n (%)
  TEAE: Localised Osteoarthritis: 0 n (%)
  TEAE: Loss of Consciousness: 0 n (%)
  TEAE: Lower Limb Fracture NOS: 1 (<1%) n (%)
  TEAE: Lower Limb Fractures and Dislocations: 2 (<1%) n (%)
  TEAE: Lower Respiratory Tract and Lung Infections: 7 (3%) n (%)
  TEAE: Lymphocyte Count Increased: 0 n (%)
  TEAE: Memory Loss (Excl Dementia): 0 n (%)
  TEAE: Metabolic Bone Disorders: 1 (<1%) n (%)
  TEAE: Metabolism Tests NEC: 2 (<1%) n (%)
  TEAE: Migraine Headaches: 0 n (%)
  TEAE: Migraine NOS: 0 n (%)
  TEAE: Mineral and Electrolyte Analyses: 0 n (%)
  TEAE: Monoarthritis: 1 (<1%) n (%)
  TEAE: Monocyte Count Decreased: 1 (<1%) n (%)
  TEAE: Monocyte Count Increased: 0 n (%)
  TEAE: Mononeuropathies: 1 (<1%) n (%)
  TEAE: Movement Disorder NOS: 1 (<1%) n (%)
  TEAE: Muscle Cramps: 2 (<1%) n (%)
  TEAE: Muscle Infections and Inflammations: 1 (<1%) n (%)
  TEAE: Muscle Pains: 1 (<1%) n (%)
  TEAE: Muscle Related Signs and Symptoms NEC: 2 (<1%) n (%)
  TEAE: Muscle Spasms: 0 n (%)
  TEAE: Muscle Strain: 3 (1%) n (%)
  TEAE: Muscle Tone Abnormalities: 0 n (%)
  TEAE: Muscle, Tendon and Ligament Injuries: 4 (1%) n (%)
  TEAE: Musculoskeletal Chest Pain: 0 n (%)
  TEAE: Musculoskeletal and Connective Tissue Disorders: 31 (11%) n (%)
  TEAE: Musculoskeletal and Connective Tissue Signs and Symptoms NEC: 14 (5%) n (%)
  TEAE: Musculoskeletal and Soft Tissue Imaging Procedures: 1 (<1%) n (%)
  TEAE: Myalgia: 1 (<1%) n (%)
  TEAE: Myasthenia Gravis: 1 (<1%) n (%)
  TEAE: Mycoplasma Infections: 0 n (%)
  TEAE: Myeloradiculopathy: 1 (<1%) n (%)
  TEAE: Myositis: 1 (<1%) n (%)
  TEAE: Nail Fungal Infection NOS: 2 (<1%) n (%)
  TEAE: Nail Infection NOS: 0 n (%)
  TEAE: Nasopharyngitis: 10 (4%) n (%)
  TEAE: Nausea: 10 (4%) n (%)
  TEAE: Nausea and Vomiting Symptoms: 14 (5%) n (%)
  TEAE: Neck Pain: 0 n (%)
  TEAE: Nervous System Disorders: 23 (8%) n (%)
  TEAE: Neurological Signs and Symptoms NEC: 2 (<1%) n (%)
  TEAE: Neuromuscular Junction Dysfunction: 1 (<1%) n (%)
  TEAE: Neutrophil Count Decreased: 0 n (%)
  TEAE: Night Cramps: 0 n (%)
  TEAE: Nitrite Urine Present: 1 (<1%) n (%)
  TEAE: Non-Accidental Overdose: 0 n (%)
  TEAE: Non-Site Specific Injuries NEC: 6 (2%) n (%)
  TEAE: Non-Site Specific Procedural Complications: 5 (2%) n (%)
  TEAE: Ophthalmic Function Diagnostic Procedures: 1 (<1%) n (%)
  TEAE: Oral Dryness and Saliva Altered: 1 (<1%) n (%)
  TEAE: Osteoarthritis Aggravated: 0 n (%)
  TEAE: Osteoarthropathies: 0 n (%)
  TEAE: Osteopenia: 1 (<1%) n (%)
  TEAE: Osteoporosis NOS: 1 (<1%) n (%)
  TEAE: Otitis Media NOS: 1 (<1%) n (%)
  TEAE: Overdoses: 0 n (%)
  TEAE: Pain in Limb: 4 (1%) n (%)
  TEAE: Paraesthesias and Dysaesthesias: 1 (<1%) n (%)
  TEAE: Parkinson's Disease NOS: 0 n (%)
  TEAE: Parkinson's Disease and Parkinsonism: 0 n (%)
  TEAE: Periorbital Haematoma: 0 n (%)
  TEAE: Peripheral Swelling: 0 n (%)
  TEAE: Pharyngitis Streptococcal: 3 (1%) n (%)
  TEAE: Physical Examination Procedures: 1 (<1%) n (%)
  TEAE: Plantar Fasciitis: 2 (<1%) n (%)
  TEAE: Pneumonia Mycoplasmal: 0 n (%)
  TEAE: Pneumonia NOS: 1 (<1%) n (%)
  TEAE: Popliteal Bursitis: 1 (<1%) n (%)
  TEAE: Post Procedural Discomfort: 1 (<1%) n (%)
  TEAE: Post Procedural Pain: 4 (1%) n (%)
  TEAE: Proctalgia: 4 (1%) n (%)
